Measured values as given in patent US8394796B2, “Bicyclic pyrimidine PI3K inhibitor compounds selective for P110 delta, and methods of use” (Genentech, Inc., priority 2009, dated 2013).
Where two headings read alike, the source gives them in different places.

What was measured:
[1] = target: T1, p110δ/p85α (PI3K p110 delta) (Homo sapiens, UniProt O00329); assay: PI3K isoform inhibition assay (fluorescence polarization PIP3 displacement; alternatively radiometric), p110 delta; assay type: biochemical; conditions: for IC50: PI3K p110 delta binding IC50; for IC50 p110 alpha/IC50 p110 delta: delta/alpha selectivity: ratio of p110 alpha IC50 to p110 delta IC50
T1 construct: purchased Upstate Group, Millipore; Dundee, UK
Method: PI3K Isoform Inhibition Assay (p110 Alpha, Beta, Gamma, Delta: α, β, γ, δ)
PI3K enzymatic activity was assayed by measuring the amount of product phosphatidylinositol 3,4,5-phosphate (PIP3) formed from substrate 4,5 phosphatidylinositol 4,5-phosphate (PIP2) using a fluorescence polarization displacement assay. The decrease in fluorescence polarization of a fluorescent PIP3 probe is measured as it is displaced from a PIP3-binding protein GRP-1 detector by PI3K-catalyzed product. […] The kinase reactions were initiated by the addition of 40 ng/mL p110α/p85α, 300 ng/mL p110β/p85α, 40 ng/mL p110γ, or 40 ng/mL p110δ/p85α (Upstate Group, Millipore; Dundee, UK), and 10 μM PIP2 (Echelon Biosciences) to the wells. […] After 60 minutes of incubation at room temperature to allow equilibration of labeled and unlabeled PIP3 binding, the parallel and perpendicular components of the fluorescence emissions from each sample were measured at an excitation wavelength of 530 nm and an emission wavelength of 590 nm using an Envision fluorescent plate reader with a rhodamine filter (PerkinElmer Life and Analytical Sciences; Wellesley, Mass.). The assay is capable of detecting 0.1-2.0 μM PIP3 product. The IC50 values were obtained by fitting the dose-dependent inhibition data to a 4-parameter equation using Assay Explorer software (MDL, San Ramon, Calif.).
The Formula I compound was serially diluted in 100% DMSO. The kinase reaction was incubated for 1 h at room temperature, and the reaction was terminated by the addition of PBS. IC50 values were subsequently determined using sigmoidal dose-response curve fit (variable slope).
HT baculovirus expression system (GIBCO/BRL), and then purified for use in biochemical assays. The four Class I PI 3-kinases are cloned into baculovirus vectors as follows: […]

[2] = test system: CD69 positive cells that are also CD20 positive, stimulated by anti-IgM, in human whole blood; assay: CD69 whole blood assay (human whole blood, anti-IgM stimulated); assay type: cell-based; conditions: read-out: IC50 in the CD69 Whole Blood Assay
Method: Human blood is obtained from healthy volunteers, with the following restrictions: 1 week drug-free, non-smokers. Blood (approximately 20 mls to test 8 compounds) is collected by venipuncture into Vacutainer tubes with sodium heparin.
Solutions of Formula I compounds at 1000 or 2000 μM in PBS (20×), are diluted by three-fold serial dilutions in 10% DMSO in PBS for a nine point dose-response curve. An aliquot of 5.5 μl of each compound is added in duplicate to a 2 ml 96-well plate; 5.5 μl of 10% DMSO in PBS is added as control and no-stimulus wells. Human whole blood—HWB (100 μl) is added to each well. After mixing the plates are incubated at 37° C., 5% CO2, 100% humidity for 30 minutes. Goat F(ab′)2 anti-human IgM (10 μl of a […] solution, 50 μg/ml final) is added to each well (except the no-stimulus wells) with mixing and the plates are incubated for an additional 20 hours. At the end of the 20 hour incubation, samples are incubated with florescent labeled antibodies for 30 minutes, at 37° C., 5% CO2, 100% humidity. Include induced control, unstained and single stains for compensation adjustments and initial voltage settings. Samples are then lysed with Pharmingen Lyse according to the manufacturer's instructions. Samples are then transferred to a 96 well plate suitable to be run on the AMS 96 well system on the BD Calibur FACs machine. Data acquired and Mean Fluorescence Intensity values were obtained using Cell Quest Software. Results are initially analyzed by FACS analysis software (Flow Jo). […] The IC50 values are calculated by Activityl)ase using Xlfit version 3, equation 201.

[3] = concentration decreasing by 50% the percent CD69 positive of CD20 positive cells stimulated by anti-IgM, 20 hours

T1 sequence (O00329 whole entry, canonical isoform): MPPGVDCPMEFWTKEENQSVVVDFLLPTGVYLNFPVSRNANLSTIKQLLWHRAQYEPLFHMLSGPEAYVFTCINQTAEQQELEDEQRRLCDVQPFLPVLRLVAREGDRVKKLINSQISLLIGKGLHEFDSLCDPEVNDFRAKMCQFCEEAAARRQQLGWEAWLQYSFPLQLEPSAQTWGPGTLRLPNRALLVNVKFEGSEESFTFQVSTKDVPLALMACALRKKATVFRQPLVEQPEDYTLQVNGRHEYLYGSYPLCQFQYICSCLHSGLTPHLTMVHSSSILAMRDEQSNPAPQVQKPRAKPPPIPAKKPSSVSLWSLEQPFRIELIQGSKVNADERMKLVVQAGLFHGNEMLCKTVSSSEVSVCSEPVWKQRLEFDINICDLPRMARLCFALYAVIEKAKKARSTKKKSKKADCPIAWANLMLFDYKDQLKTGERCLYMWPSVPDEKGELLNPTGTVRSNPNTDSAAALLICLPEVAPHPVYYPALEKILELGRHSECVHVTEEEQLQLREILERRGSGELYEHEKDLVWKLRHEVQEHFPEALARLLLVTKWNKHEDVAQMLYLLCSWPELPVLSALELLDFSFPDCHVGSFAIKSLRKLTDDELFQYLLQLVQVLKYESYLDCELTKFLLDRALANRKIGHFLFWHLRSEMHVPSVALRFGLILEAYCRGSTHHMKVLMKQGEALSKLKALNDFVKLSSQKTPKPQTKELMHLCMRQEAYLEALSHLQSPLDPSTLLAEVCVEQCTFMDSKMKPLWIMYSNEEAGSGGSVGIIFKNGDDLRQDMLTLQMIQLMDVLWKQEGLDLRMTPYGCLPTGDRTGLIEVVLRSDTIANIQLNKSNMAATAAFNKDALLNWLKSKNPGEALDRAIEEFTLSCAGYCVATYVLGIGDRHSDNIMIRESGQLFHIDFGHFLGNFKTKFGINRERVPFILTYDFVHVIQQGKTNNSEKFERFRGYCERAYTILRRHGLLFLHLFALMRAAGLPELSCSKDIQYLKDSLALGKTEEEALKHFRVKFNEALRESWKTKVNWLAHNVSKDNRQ
T1 sequence (P27986 whole entry partner, canonical isoform): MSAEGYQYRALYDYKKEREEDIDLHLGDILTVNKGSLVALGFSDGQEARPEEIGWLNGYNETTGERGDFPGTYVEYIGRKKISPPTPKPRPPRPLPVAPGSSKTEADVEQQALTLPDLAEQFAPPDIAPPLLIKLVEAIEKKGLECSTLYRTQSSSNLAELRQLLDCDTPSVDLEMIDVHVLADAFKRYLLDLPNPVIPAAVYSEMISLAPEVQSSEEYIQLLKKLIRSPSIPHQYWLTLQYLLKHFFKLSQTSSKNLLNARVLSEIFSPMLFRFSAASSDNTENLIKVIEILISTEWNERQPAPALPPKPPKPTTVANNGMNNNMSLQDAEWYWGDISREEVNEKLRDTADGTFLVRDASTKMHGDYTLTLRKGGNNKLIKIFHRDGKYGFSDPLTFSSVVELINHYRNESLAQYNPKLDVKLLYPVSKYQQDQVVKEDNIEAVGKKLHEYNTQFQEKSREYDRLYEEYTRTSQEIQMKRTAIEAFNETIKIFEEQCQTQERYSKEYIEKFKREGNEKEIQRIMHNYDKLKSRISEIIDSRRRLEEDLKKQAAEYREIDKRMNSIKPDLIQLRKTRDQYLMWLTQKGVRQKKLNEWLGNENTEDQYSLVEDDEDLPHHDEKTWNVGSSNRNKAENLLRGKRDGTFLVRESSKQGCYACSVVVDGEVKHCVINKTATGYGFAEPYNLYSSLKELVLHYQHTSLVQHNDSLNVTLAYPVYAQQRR

IC50 [1]	IC50 p110 alpha/IC50 p110 delta [1]	IC50 [2, 3]	Structure (SMILES)	IC50 ([2]; 20 h)
		51.1 nM	CCc1nc2ccccc2n1-c1nc(N2CCOCC2)c2nc(CN3CC([C@@H](O)C(C)C)C3)n(C)c2n1 [Example 388, (S)-1-(1-((2-(2-ethyl-1H-benzo[d]imidazol-1-yl)-9-methyl-6-morpholino-9H-purin-8-yl)methyl)azetidin-3-yl)-2-methylpropan-1-ol]	
		65.9 nM	Cn1c(CN2CCN(C(C)(C)C(N)=O)CC2)nc2c(N3CCOCC3)nc(-n3c(C4CC4)nc4ccccc43)nc21 [Example 438, 2-(4-((2-(2-cyclopropyl-1H-benzo[d]imidazol-1-yl)-9-methyl-6-morpholino-9H-purin-8-yl)methyl)piperazin-1-yl)-2-methylpropanamide]	
2.38 nM	111	38.3 nM	CC(C)c1nc2ccccc2n1-c1nc(N2CCOCC2)c2nc(CN3CCN(C(C)(C)CO)CC3)[nH]c2n1 [Example 490, 2-(4-((2-(2-isopropyl-1H-benzo[d]imidazol-1-yl)-6-morpholino-9H-purin-8-yl)methyl)piperazin-1-yl)-2-methylpropan-1-ol]	
		34.2 nM	CNc1nc2ccccc2n1-c1nc(N2CCOCC2)c2nc(CN3CCN(C(C)(C)C)CC3)n(C)c2n1 [Example 428, 1-(8-((4-tert-butylpiperazin-1-yl)methyl)-9-methyl-6-morpholino-9H-purin-2-yl)-N-methyl-1H-benzo[d]imidazol-2-amine]	
		28.6 nM	Cc1nc2ccccc2n1-c1nc(N2CCOCC2)c2nc(CN3CCC(C(C)(C)O)CC3)[nH]c2n1 [Example 702, 2-(1-((2-(2-methyl-1H-benzo[d]imidazol-1-yl)-6-morpholino-9H-purin-8-yl)methyl)piperidin-4-yl)propan-2-ol]	
		56.7 nM	Cn1c(CN2CCN(C(C)(C)CO)CC2)nc2c(N3CCOCC3)nc(-n3c(CCO)nc4ccccc43)nc21 [Example 427, 2-(4-((2-(2-(2-hydroxyethyl)-1H-benzo[d]imidazol-1-yl)-9-methyl-6-morpholino-9H-purin-8-yl)methyl)piperazin-1-yl)-2-methylpropan-1-ol]	
2.74 nM	64	17.8 nM	Cc1nc2ccccc2n1-c1nc(N2CCOCC2)c2oc(CN3CCN(C(C)(C)C(N)=O)CC3)cc2n1 [Example 240, 2-methyl-2-(4-((2-(2-methyl-1H-benzo[d]imidazol-1-yl)-4-morpholinofuro[3,2-d]pyrimidin-6-yl)methyl)piperazin-1-yl)propanamide]	

Structure (SMILES)	IC50 [1]	IC50 p110 alpha/IC50 p110 delta [1]	IC50 [2, 3]	IC50 ([2]; 20 h)
CN(C)C1CCN(Cc2cc3nc(-c4ccc(O)c5nccn45)nc(N4CCOCC4)c3s2)CC1 [Example 689, 5-(6-((4-(dimethylamino)piperidin-1-yl)methyl)-4-morpholinothieno[3,2-d]pyrimidin-2-yl)imidazo[1,2-a]pyridin-8-ol]	25.8 nM	23		29 nM
